Results as given in paper PMC6021035, “Insights into biological activity of ureidoamides with primaquine and amino acid moieties” (Journal of Enzyme Inhibition and Medicinal Chemistry, 2018).
Marks after values point to notes of the source that are not given here.

Assays:
[1] = test system: Candida albicans ATCC 10231; experiment: Minimum biofilm eradication assay; format: cell-based; conditions: ATCC10231, 48 h, read-out: MBEC
Experimental: (§1) We tested the susceptibility of different bacterial and yeast strains to compounds 5a–f by determining the minimum biofilm eradication concentration (MBEC). The test was performed in a sterile 96-well flat-bottom plastic tissue culture plate (TPP, Switzerland). Each well was filled with 100 µl of bacterial (10^7 CFUs/ml) or yeast (5 × 10^6 CFUs/ml) suspension. When the possibility of inhibition of yeast biofilm formation was tested, the wells were pre-treated with FBS (250 µl per well). Negative controls contained broth only. Positive controls were performed using standard antibacterial and antifungal drugs gentamycin and amphotericin B, respectively. The plates were covered and incubated aerobically for 24 h (bacteria) or 48 h (yeast) at 37 °C. Following the incubation period, each well was aspirated and washed three times with 250 µl of PBS and vigorously shaken in order to remove all non-adherent bacteria/yeast. The remaining attached cells were fixed with methanol (15 min) and the plates were left to dry overnight. The formed biofilm was stained with crystal violet (1%, 5 min). Excess stain was rinsed by placing the plate under running tap water and the plates were left to dry for 24 h. Adherent cells were resolubilized with acetic acid (33%, v/v). The optical density of each well was measured at 570 nm using a Multiscan plate reader. The MBEC value represents the lowest compound dilution at which microorganisms fail to grow.

[2] = test system: Candida albicans ATCC 90028; experiment: Minimum biofilm eradication assay; format: cell-based; conditions: ATCC90028, 48 h, read-out: MBEC
Experimental: as §1

[3] = test system: Candida kefyr ATCC 2512; experiment: Minimum biofilm eradication assay; format: cell-based; conditions: Kluyveromyces marxianus, ATCC2512, 48 h, read-out: MBEC
Experimental: as §1

[4] = test system: Candida krusei ATCC 14243; experiment: Minimum biofilm eradication assay; format: cell-based; conditions: Pichia kudriavzevii, ATCC14243, 48 h, read-out: MBEC
Experimental: as §1

[5] = test system: Candida parapsylosis ATCC 22019; experiment: Minimum biofilm eradication assay; format: cell-based
Experimental: as §1

[6] = test system: Candida tropicalis ATCC 750; experiment: Minimum biofilm eradication assay; format: cell-based; conditions: ATCC750, 48 h, read-out: MBEC
Experimental: as §1

[7] = test system: Enterococcus faecalis ATCC 29212; experiment: Minimum biofilm eradication assay; format: cell-based
Experimental: as §1

[8] = test system: Escherichia coli ATCC 10536; experiment: Minimum biofilm eradication assay; format: cell-based
Experimental: as §1

[9] = test system: Escherichia coli ATCC 8739; experiment: Minimum biofilm eradication assay; format: cell-based
Experimental: as §1

[10] = test system: Pseudomonas aeruginosa ATCC 27853; experiment: Minimum biofilm eradication assay; format: cell-based
Experimental: as §1

[11] = test system: Pseudomonas aeruginosa ATCC 9027; experiment: Minimum biofilm eradication assay; format: cell-based
Experimental: as §1

[12] = test system: Staphylococcus aureus ATCC 25213; experiment: Minimum biofilm eradication assay; format: cell-based
Experimental: as §1

[13] = test system: Staphylococcus aureus ATCC 6538; experiment: Minimum biofilm eradication assay; format: cell-based
Experimental: as §1

[14] = Interaction with 1,1-diphenyl-2-picrylhydrazyl (DPPH); conditions: 100 μΜ
Experimental: To a solution of DPPH in absolute ethanol, an appropriate volume of the tested compound solution (0.1 mM final concentration) dissolved in DMSO was added. Absorbance was recorded at 517 nm after 20 and 60 min at room temperature (Lambda 20 double beam spectrophotometer, Perkin-Elmer, UK). Experiments were repeated at least in triplicate and the standard deviation of absorbance was less than 10% of the mean[10]. NDGA was used under the same experimental conditions as a reference compound.

[15] = target: T1, soybean lipoxygenase (LOX) (Glycine max, UniProt P08170); experiment: In vitro soybean lipoxygenase (LOX) inhibition; format: biochemical; conditions: for IC50: sodium linoleate 0.1 mM, read-out: LOX inhibition (IC50 μM) ± SD
T1 construct: purchased Sigma-Aldrich
T1 sequence (P08170 1-839): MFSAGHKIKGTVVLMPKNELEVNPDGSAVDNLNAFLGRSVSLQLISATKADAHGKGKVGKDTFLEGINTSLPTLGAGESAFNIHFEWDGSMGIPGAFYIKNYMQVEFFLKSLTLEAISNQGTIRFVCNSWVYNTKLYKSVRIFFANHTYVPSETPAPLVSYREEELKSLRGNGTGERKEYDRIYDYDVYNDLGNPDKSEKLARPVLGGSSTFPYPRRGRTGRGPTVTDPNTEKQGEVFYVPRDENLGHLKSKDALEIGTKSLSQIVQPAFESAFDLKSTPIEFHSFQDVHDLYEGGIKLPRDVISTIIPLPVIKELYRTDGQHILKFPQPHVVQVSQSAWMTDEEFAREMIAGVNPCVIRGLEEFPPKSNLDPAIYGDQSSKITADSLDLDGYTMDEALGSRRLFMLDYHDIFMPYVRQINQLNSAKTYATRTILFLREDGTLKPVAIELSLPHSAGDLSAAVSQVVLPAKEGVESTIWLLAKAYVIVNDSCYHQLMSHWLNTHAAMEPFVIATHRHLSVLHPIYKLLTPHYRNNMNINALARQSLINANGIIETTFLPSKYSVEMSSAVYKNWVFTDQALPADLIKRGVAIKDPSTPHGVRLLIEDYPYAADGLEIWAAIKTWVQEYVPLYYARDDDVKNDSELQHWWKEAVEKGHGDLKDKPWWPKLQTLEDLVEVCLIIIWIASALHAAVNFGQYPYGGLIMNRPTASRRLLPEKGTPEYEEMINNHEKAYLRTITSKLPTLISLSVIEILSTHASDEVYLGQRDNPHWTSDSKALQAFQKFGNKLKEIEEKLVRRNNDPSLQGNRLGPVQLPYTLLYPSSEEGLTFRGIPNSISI
Experimental: In vitro LOX inhibition assay was accomplished as described previously. Test compounds (stock solutions 10 mM in DMSO) were incubated at room temperature with sodium linoleate (0.1 mM) and 0.2 ml of LOX solution (0.1 mg in 10 ml saline). Conversion of sodium linoleate to 13-hydroperoxylinoleic acid was measured at 234 nm and compared to the reference inhibitor. Several concentrations were used for IC50 determination.

SMILES | minimal effective concentration [1] [µg/mL] | minimal effective concentration [2] [µg/mL] | minimal effective concentration [3] [µg/mL] | minimal effective concentration [4] [µg/mL] | MBEC [5] [µg/mL] | minimal effective concentration [6] [µg/mL] | MBEC [7] [µg/mL] | MBEC [8] [µg/mL] | MBEC [9] [µg/mL] | MBEC [10] [µg/mL] | MBEC [11] [µg/mL] | MBEC [12] [µg/mL] | MBEC [13] [µg/mL] | DPPH-reducing ability 20 min [14] | DPPH-reducing ability 60 min [14] | LOX inhibition, per cent ([15]; 100 μΜ (footnotes a, c)) | IC50 [15] [µM]
COc1cc(NC(C)CCCNC(=O)NC(CC(C)C)C(=O)NC(c2ccccc2)c2ccccc2)c2ncccc2c1 (stereo not shown) [Compound 5a, N-(diphenylmethyl)-2-[({4-[(6-methoxyquinolin-8-yl)amino]pentyl}carbamoyl)amino]-4-methylpentanamide] | > 100 | 25 | > 100 | > 100 | >100 | > 100 | >100 | 6.25 | 6.25 | 25 | 60 | 25 | 12.5 | 6^b % | 5^b % | 40.0 ± 1.0^a^,^c per cent | 
COc1cc(NC(C)CCCNC(=O)NC(C(=O)N(C)C(c2ccccc2)c2ccccc2)c2ccccc2)c2ncccc2c1 (stereo not shown) [Compound 5b, N-(diphenylmethyl)-2-[({4-[(6-methoxyquinolin-8-yl)amino]pentyl}carbamoyl)amino]-N-methyl-2-phenylacetamide] | 50 | 50 | > 100 | > 100 | >100 | > 100 | >100 | 12.5 | 12.5 | >100 | >100 | >100 | >100 | 7^b % | 5^b % |  | 69 ± 2
COc1cc(NC(C)CCCNC(=O)NC(C(=O)NC(c2ccccc2)c2ccc(Cl)cc2)c2ccccc2)c2ncccc2c1 (stereo not shown) [Compound 5c, N-[(4-chlorophenyl)(phenyl)methyl]-2-[({4-[(6-methoxyquinolin-8-yl)amino]pentyl}carbamoyl)amino]-2-phenylacetamide] | 50 | 25 | > 100 | > 100 | >100 | > 100 | >100 | 6.25 | 6.25 | 25 | 50 | >100 | >100 | 2^b % | 2^b % |  | 40 ± 1.5
COc1cc(NC(C)CCCNC(=O)NC(C(=O)NC(c2ccccc2)c2ccccc2)c2ccc(Cl)cc2)c2ncccc2c1 (stereo not shown) [Compound 5d, 2–(4-chlorophenyl)-N-(diphenylmethyl)-2-[({4-[(6-methoxyquinolin-8-yl)amino]pentyl}carbamoyl)amino]acetamide] | 50 | 25 | 25 | > 100 | >100 | > 100 | >100 | 25 | 25 | 50 | 50 | 25 | 25 | 1^b % | 2^b % |  | 41.5 ± 3.1
COc1cc(NC(C)CCCNC(=O)NC(C(=O)NC(c2ccccc2)c2ccc(Cl)cc2)c2ccc(Cl)cc2)c2ncccc2c1 (stereo not shown) [Compound 5e, 2–(4-chlorophenyl)-N-[(4-chlorophenyl)(phenyl)methyl]-2-[({4-[(6-methoxyquinolin-8-yl)amino]pentyl}carbamoyl)amino]acetamide] | 25 | 25 | 6.25 | > 100 | >100 | > 100 | >100 | 50 | 50 | >100 | >100 | >100 | >100 | 1^b % | 1^b % |  | 56 ± 2.3
COc1ccc(C(=NNC(=O)C(NC(=O)NCCCC(C)Nc2cc(OC)cc3cccnc23)c2ccc(Cl)cc2)c2ccccc2)cc1 (stereo not shown) [Compound 5f, 3-[(4-chlorophenyl)({N'-[(4-methoxyphenyl)(phenyl)methylidene]hydrazinecarbonyl})methyl]-1-{4-[(6-methoxyquinolin-8-yl)amino]pentyl}urea] | 25 | 25 | 6.25 | > 100 | >100 | > 100 | >100 | 12.5 | 6.25 | >100 | >100 | >100 | >100 | 2^b % | 2^b % |  | 67.5 ± 1.1
COc1cc(NC(C)CCCN)c2ncccc2c1 (stereo not shown) [PQ, 8-[(4-amino-1-methylbutyl)amino]-6-methoxyquinoline, reference compound] | > 100 | > 100 | 50 | > 100 | 50 | > 100 | >100 | 25 | 25 | 50 | 70 | >100 | 50 |  |  |  | 
